# Test results published in US20250163038A1, “CBL-B MODULATORS AND USES THEREOF” (Nimbus Clio, Inc., priority 2021, published 2025).
# pEC50, pIC50: −log10 of the molar value. Like-named read-outs stand apart in the source and are kept apart here.
# Tests used:
# [1] = target: T1, Recombinant human c-Cbl (aa 47-435) (Homo sapiens, UniProt P22681); test: c-Cbl Biochemical Assay (TR-FRET)
# T1 sequence (P22681 47-435): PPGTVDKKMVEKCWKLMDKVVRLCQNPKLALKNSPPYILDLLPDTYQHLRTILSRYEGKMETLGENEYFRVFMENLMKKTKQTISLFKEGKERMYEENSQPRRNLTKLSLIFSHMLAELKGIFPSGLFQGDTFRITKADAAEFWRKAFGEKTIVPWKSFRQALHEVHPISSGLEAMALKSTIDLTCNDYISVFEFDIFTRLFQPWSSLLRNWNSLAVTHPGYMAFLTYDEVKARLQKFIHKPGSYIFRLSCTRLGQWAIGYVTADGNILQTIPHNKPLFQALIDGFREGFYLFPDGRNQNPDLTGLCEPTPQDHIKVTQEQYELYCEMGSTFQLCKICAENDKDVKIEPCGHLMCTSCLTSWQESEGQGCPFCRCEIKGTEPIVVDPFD
# [2] = system: Jurkat (clone E6-1) cells with NFAT luciferase reporter; test: Jurkat reporter assay (NFAT Luciferase); assay type: cell-based; conditions: Homo sapiens; Jurkat NFAT luciferase reporter cells, anti-CD3 stimulation, 6 hr; read-out: Jurkat NFAT EC50
# [3] = target: Recombinant human Cbl-b (aa 36-427) (Homo sapiens, UniProt Q13191); test: Cbl-b Biochemical Assay (TR-FRET)
# Sequence of Recombinant human Cbl-b (aa 36-427) (Q13191 36-427): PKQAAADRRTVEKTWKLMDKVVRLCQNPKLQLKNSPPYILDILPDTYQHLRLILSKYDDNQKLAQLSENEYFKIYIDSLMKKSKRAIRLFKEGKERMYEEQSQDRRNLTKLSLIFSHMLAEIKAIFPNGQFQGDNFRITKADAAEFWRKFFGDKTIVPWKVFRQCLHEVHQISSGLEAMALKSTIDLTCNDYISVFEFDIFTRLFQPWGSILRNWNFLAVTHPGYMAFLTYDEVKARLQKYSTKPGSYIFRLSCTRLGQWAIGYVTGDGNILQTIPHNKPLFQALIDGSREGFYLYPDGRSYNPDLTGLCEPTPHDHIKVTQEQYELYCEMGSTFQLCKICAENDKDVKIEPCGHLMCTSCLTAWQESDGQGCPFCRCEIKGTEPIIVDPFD
# [4] = hc-Cbl Biochemical Assay (TR-FRET), read-out: TR-FRET hcCbl IC50
SMILES,"pIC50 [1, 4]",pEC50 [2],pIC50 ([3]; read-out: TR-FRET hCbl-b IC50),pIC50 [1],pIC50 [3]
"Cn1cnnc1-c1cc(F)ccc1-c1cc(-c2nc3cc(CN[C@@H]4CCC[C@]4(C)O)cc(F)c3o2)nc(C2CC2)c1 [AFL-2, (1S,2R)-2-(((2-(6-Cyclopropyl-4-(4-fluoro-2-(4-methyl-4H-1,2,4-triazol-3-yl)phenyl)pyridin-2-yl)-7-fluorobenzo[d]oxazol-5-yl)methyl)amino)-1-methylcyclopentan-1-ol]",,5.00 to 6.00,,6.00 to 6.70,> 6.70
"Cn1cnnc1-c1cc(F)ccc1-c1cc(-c2nc3cc(CN[C@@H]4CCC[C@@]4(C)O)cc(F)c3o2)nc(C2CC2)c1 [AFM-1, (1R,2R)-2-(((2-(6-Cyclopropyl-4-(4-fluoro-2-(4-methyl-4H-1,2,4-triazol-3-yl)phenyl)pyridin-2-yl)-7-fluorobenzo[d]oxazol-5-yl)methyl)amino)-1-methylcyclopentan-1-ol]",,5.00 to 6.00,,6.00 to 6.70,> 6.70
"Cn1cnnc1-c1cc(F)ccc1-c1cc(-c2nc3cc(CN4CC(F)C4)cc(F)c3o2)nc(C2CC2)c1 [AFP-3, 2-{6-Cyclopropyl-4-[4-fluoro-2-(4-methyl-1,2,4-triazol-3-yl)phenyl]pyridin-2-yl}-7-fluoro-5-[(3-fluoroazetidin-1-yl)methyl]-1,3-benzoxazole]",6.00 to 6.70,5.00 to 6.00,5.00 to 6.00,,
"COC1(CN[C@H](C)c2cc(F)c3oc(-c4cc(-c5ccc(F)cc5-c5nncn5C)cc(C5CC5)n4)nc3c2)CCC1 [AFT-1, [(1R)-1-(2-{6-Cyclopropyl-4-[4-fluoro-2-(4-methyl-1,2,4-triazol-3-yl)phenyl]pyridin-2-yl}-7-fluoro-1,3-benzoxazol-5-yl)ethyl][(1-methoxycyclobutyl)methyl]amine]",6.00 to 6.70,5.00 to 6.00,> 6.70,,
"COC[C@@H](C)NCc1cc(F)c2oc(-c3cc(-c4ccc(F)cc4-c4nncn4C)cc(C4CC4)n3)nc2c1 [AFV-1, [(2-{6-Cyclopropyl-4-[4-fluoro-2-(4-methyl-1,2,4-triazol-3-yl)phenyl]pyridin-2-yl}-7-fluoro-1,3-benzoxazol-5-yl)methyl][(2R)-1-methoxypropan-2-yl]amine]",6.00 to 6.70,6.00 to 6.70,> 6.70,,
"COC(=O)c1cc2nc(-c3cc(-c4ccc(F)cc4-c4nncn4C)cc(C4CC4)n3)oc2c(F)c1F [AFW-1, Methyl 2-{6-cyclopropyl-4-[4-fluoro-2-(4-methyl-1,2,4-triazol-3-yl)phenyl]pyridin-2-yl}-6,7-difluoro-1,3-benzoxazole-5-carboxylate]",5.00 to 6.00,5.00 to 6.00,5.00 to 6.00,,
"Cn1cnnc1-c1cc(F)ccc1-c1cc(-c2nc3cc(CO)c(F)c(F)c3o2)nc(C2CC2)c1 [AFX-1, (2-{6-cyclopropyl-4-[4-fluoro-2-(4-methyl-1,2,4-triazol-3-yl)phenyl]pyridin-2-yl}-6,7-difluoro-1,3-benzoxazol-5-yl)methanol]",6.00 to 6.70,6.00 to 6.70,6.00 to 6.70,,
"CO[C@H](C)[C@@H](C)NCc1cc(C)c2oc(-c3cc(-c4ccc(F)cc4-c4nncn4C)cc(C4CC4)n3)nc2c1 [AFZ-2, [(2-{6-Cyclopropyl-4-[4-fluoro-2-(4-methyl-1,2,4-triazol-3-yl)phenyl]pyridin-2-yl}-7-methyl-1,3-benzoxazol-5-yl)methyl][(2R,3R)-3-methoxybutan-2-yl]amine]",6.00 to 6.70,6.00 to 6.70,6.00 to 6.70,,
"Cn1cnnc1-c1cc(F)ccc1-c1cccc(-c2nc3cc(CN4CCC5(CC4)CC5)cc(C(F)(F)F)c3o2)c1 [AG-2, 5-((6-Azaspiro[2.5]octan-6-yl)methyl)-2-(4′-fluoro-2′-(4-methyl-4H-1,2,4-triazol-3-yl)-[1,1′-biphenyl]-3-yl)-7-(trifluoromethyl)benzo[d]oxazole]",5.00 to 6.00,5.00 to 6.00,> 6.70,,
"Cn1cnnc1-c1cc(F)ccc1-c1cc(-c2nc3cc(CNC(C)(C)C4CCC4)c(F)c(F)c3o2)nc(C2CC2)c1 [AGD-1, (2-Cyclobutylpropan-2-yl)[(2-{6-cyclopropyl-4-[4-fluoro-2-(4-methyl-1,2,4-triazol-3-yl)phenyl]pyridin-2-yl}-6,7-difluoro-1,3-benzoxazol-5-yl)methyl]amine]",6.00 to 6.70,5.00 to 6.00,> 6.70,,
"Cn1cnnc1-c1cc(F)ccc1-c1cc(-c2nc3cc(CNCC4CCC4)c(F)c(F)c3o2)nc(C2CC2)c1 [AGE-1, 1-Cyclobutyl-N-((2-(6-cyclopropyl-4-(4-fluoro-2-(4-methyl-4H-1,2,4-triazol-3-yl)phenyl)pyridin-2-yl)-6,7-difluorobenzo[d]oxazol-5-yl)methyl)methanamine]",> 6.70,> 6.70,> 6.70,,
"Cn1cnnc1-c1cc(F)ccc1-c1cc(-c2nc3cc(CNCC(C)(C)O)c(F)c(F)c3o2)nc(C2CC2)c1 [AGF-1, 1-{[(2-{6-Cyclopropyl-4-[4-fluoro-2-(4-methyl-1,2,4-triazol-3-yl)phenyl]pyridin-2-yl}-6,7-difluoro-1,3-benzoxazol-5-yl)methyl]amino}-2-methylpropan-2-ol]",> 6.70,> 6.70,> 6.70,,
"C[C@H]1CCCN(Cc2ccc3oc(-c4cc(-c5ccc(C#N)cc5-c5nncn5C)cc(C5CC5)n4)nc3c2)C1 [AGG-2, 4-[2-Cyclopropyl-6-(5-{[(3S)-3-methylpiperidin-1-yl]methyl}-1,3-benzoxazol-2-yl)pyridin-4-yl]-3-(4-methyl-1,2,4-triazol-3-yl)benzonitrile]",6.00 to 6.70,6.00 to 6.70,> 6.70,,

# Continued, in another order:
"pIC50 [1, 4]",pEC50 [2],pIC50 ([3]; read-out: TR-FRET hCbl-b IC50),SMILES,pIC50 [1],pIC50 [3]
> 6.70,6.00 to 6.70,> 6.70,"CN(Cc1cc(F)c2oc(-c3cc(-c4ccc(F)cc4-c4nncn4C)cc(C4CC4)n3)nc2c1)[C@@H]1CCC[C@@H]1O [AFK-1, (1S,2R)-2-{[(2-{6-Cyclopropyl-4-[4-fluoro-2-(4-methyl-1,2,4-triazol-3-yl)phenyl]pyridin-2-yl}-7-fluoro-1,3-benzoxazol-5-yl)methyl](methyl)amino}cyclopentan-1-ol]",,
> 6.70,6.00 to 6.70,> 6.70,"CO[C@H](C)CNCc1cc(F)c2oc(-c3cc(-c4ccc(F)cc4-c4nncn4C)cc(C4CC4)n3)nc2c1 [AFN-2, [(2-{6-Cyclopropyl-4-[4-fluoro-2-(4-methyl-1,2,4-triazol-3-yl)phenyl]pyridin-2-yl}-7-fluoro-1,3-benzoxazol-5-yl)methyl][(2R)-2-methoxypropyl]amine]",,
> 6.70,6.00 to 6.70,> 6.70,"CO[C@@H](C)CNCc1cc(F)c2oc(-c3cc(-c4ccc(F)cc4-c4nncn4C)cc(C4CC4)n3)nc2c1 [AFO-2, [(2-{6-Cyclopropyl-4-[4-fluoro-2-(4-methyl-1,2,4-triazol-3-yl)phenyl]pyridin-2-yl}-7-fluoro-1,3-benzoxazol-5-yl)methyl][(2S)-2-methoxypropyl]amine]",,
> 6.70,6.00 to 6.70,> 6.70,"COC1(CN[C@@H](C)c2cc(F)c3oc(-c4cc(-c5ccc(F)cc5-c5nncn5C)cc(C5CC5)n4)nc3c2)CCC1 [AFS-2, [(1S)-1-(2-{6-Cyclopropyl-4-[4-fluoro-2-(4-methyl-1,2,4-triazol-3-yl)phenyl]pyridin-2-yl}-7-fluoro-1,3-benzoxazol-5-yl)ethyl][(1-methoxycyclobutyl)methyl]amine]",,
> 6.70,> 6.70,> 6.70,"COC[C@H](C)NCc1cc(F)c2oc(-c3cc(-c4ccc(F)cc4-c4nncn4C)cc(C4CC4)n3)nc2c1 [AFU-1, [(2-{6-Cyclopropyl-4-[4-fluoro-2-(4-methyl-1,2,4-triazol-3-yl)phenyl]pyridin-2-yl}-7-fluoro-1,3-benzoxazol-5-yl)methyl][(2S)-1-methoxypropan-2-yl]amine]",,
> 6.70,> 6.70,> 6.70,"Cn1cnnc1-c1cc(F)ccc1-c1cc(-c2nc3cc(CN[C@@H]4CCC[C@@H]4O)c(F)c(F)c3o2)nc(C2CC2)c1 [AFY-2, (1S,2R)-2-{[(2-{6-Cyclopropyl-4-[4-fluoro-2-(4-methyl-1,2,4-triazol-3-yl)phenyl]pyridin-2-yl}-6,7-difluoro-1,3-benzoxazol-5-yl)methyl]amino}cyclopentan-1-ol]",,
> 6.70,> 6.70,> 6.70,"Cn1cnnc1-c1cc(F)ccc1-c1cc(-c2nc3cc(CNCC4(O)CCC4)c(F)c(F)c3o2)nc(C2CC2)c1 [AGA-1, 1-({[(2-{6-Cyclopropyl-4-[4-fluoro-2-(4-methyl-1,2,4-triazol-3-yl)phenyl]pyridin-2-yl}-6,7-difluoro-1,3-benzoxazol-5-yl)methyl]amino}methyl)cyclobutan-1-ol]",,
> 6.70,> 6.70,> 6.70,"COCCNCc1cc2nc(-c3cc(-c4ccc(F)cc4-c4nncn4C)cc(C4CC4)n3)oc2c(F)c1F [AGB-1, [(2-{6-Cyclopropyl-4-[4-fluoro-2-(4-methyl-1,2,4-triazol-3-yl)phenyl]pyridin-2-yl}-6,7-difluoro-1,3-benzoxazol-5-yl)methyl](2-methoxyethyl)amine]",,
> 6.70,> 6.70,> 6.70,"CO[C@@H](C)[C@H](C)NCc1cc(C)c2oc(-c3cc(-c4ccc(F)cc4-c4nncn4C)cc(C4CC4)n3)nc2c1 [AGC-2, [(2-{6-Cyclopropyl-4-[4-fluoro-2-(4-methyl-1,2,4-triazol-3-yl)phenyl]pyridin-2-yl}-7-methyl-1,3-benzoxazol-5-yl)methyl][(2S,3S)-3-methoxybutan-2-yl]amine]",,
